What was measured:
Conditions in all cases: 48 h
NOMO1 [1] = experiment: cell viability relative to DMSO control; higher = less cytotoxic
How it was run: (§1)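 Viability, reported as a per-plate percentage of DMSO wells with cell-free wells as background, came from CellTiter-Glo One luminescence. Reading took place after 48 h at 37°C. Before that, NOMO1 or SEM (500 cells/well) or P12-Ichikawa (1000 cells/well) leukemia cells, adapted for at least four passages in each medium, were seeded in 1536-well plates (5 μl) and pin-dosed with library compounds in DMSO, 47 μM to 0.79 nM over 11 threefold points.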

P12-Ichikawa [2] = experiment: as above
How it was run: as §1

SEM cells [3] = experiment: as above
How it was run: as §1

NOMO1 [4] = experiment: AUC of viability dose-response curve (% viability x log10 dose units); higher = less sensitive
How it was run: (§2)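 Viability of medium-adapted leukemia cells was measured by CellTiter-Glo One luminescence after 48 h at 37°C with library compounds in DMSO. Doses were 11 threefold steps from 47 μM to 0.79 nM, in 1536-well plates at 500 or 1000 cells/well. Signals were normalised per plate to DMSO and cell-free wells and fitted with a four-parameter log-logistic model on log10 dose. Area under the curve was integrated by trapezoidal rule, with curves exceeding full viability scaled and failed quality-control curves removed.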

P12-Ichikawa [5] = experiment: as above
How it was run: as §2

SEM cells [6] = experiment: as above
How it was run: as §2

CCNC(=O)c1cc2c(-c3cc(OCCN4CCCC4)c(Cl)cc3Cl)nc(N)nc2s1
cell viability [%]
Conditions | NOMO1 [1] | P12-Ichikawa [2] | SEM cells [3]
HPLM + 10% dialyzed FBS, 0.000781 µM | 105 | 98.3 | 114
HPLM + 10% dialyzed FBS, 0.00234 µM | 121 | 103 | 112
HPLM + 10% dialyzed FBS, 0.00702 µM | 92.7 | 109 | 112
HPLM + 10% dialyzed FBS, 0.0211 µM | 107 | 108 | 101
HPLM + 10% dialyzed FBS, 0.0632 µM | 102 | 102 | 104
HPLM + 10% dialyzed FBS, 0.19 µM | 104 | 101 | 114
HPLM + 10% dialyzed FBS, 0.569 µM | 105 | 108 | 101
HPLM + 10% dialyzed FBS, 1.71 µM | 86.6 | 92.8 | 95.2
HPLM + 10% dialyzed FBS, 5.12 µM | 47.3 | 62.9 | 32.2
HPLM + 10% dialyzed FBS, 15.4 µM | 17.2 | 53.6 | 20.1
HPLM + 10% dialyzed FBS, 46.1 µM | 15.8 | 44.9 | 19.4
RPMI 5 mM glucose + 10% FBS, 0.000781 µM | 84.7 | 102 | 103
RPMI 5 mM glucose + 10% FBS, 0.00234 µM | 93.6 | 91.9 | 108
RPMI 5 mM glucose + 10% FBS, 0.00702 µM | 95.6 | 106 | 117
RPMI 5 mM glucose + 10% FBS, 0.0211 µM | 85.6 | 97 | 96.6
RPMI 5 mM glucose + 10% FBS, 0.0632 µM | 95.8 | 98.4 | 112
RPMI 5 mM glucose + 10% FBS, 0.19 µM | 109 | 95.8 | 112
RPMI 5 mM glucose + 10% FBS, 0.569 µM | 88.2 | 97.2 | 112
RPMI 5 mM glucose + 10% FBS, 1.71 µM | 88.9 | 77.6 | 86.9
RPMI 5 mM glucose + 10% FBS, 5.12 µM | 32.3 | 47.1 | 31.9
RPMI 5 mM glucose + 10% FBS, 15.4 µM | 13.2 | 34 | 21.8
RPMI 5 mM glucose + 10% FBS, 46.1 µM | 10.1 | 35.5 | 18.7
RPMI 5 mM glucose + 10% dialyzed FBS, 0.000781 µM | 107 | 102 | 96.2
RPMI 5 mM glucose + 10% dialyzed FBS, 0.00234 µM | 103 | 96.5 | 98.6
RPMI 5 mM glucose + 10% dialyzed FBS, 0.00702 µM | 115 | 101 | 92.2
RPMI 5 mM glucose + 10% dialyzed FBS, 0.0211 µM | 111 | 94.7 | 110
RPMI 5 mM glucose + 10% dialyzed FBS, 0.0632 µM | 82.8 | 96 | 98.7
RPMI 5 mM glucose + 10% dialyzed FBS, 0.19 µM | 107 | 97.6 | 112
RPMI 5 mM glucose + 10% dialyzed FBS, 0.569 µM | 93.2 | 90.5 | 98
RPMI 5 mM glucose + 10% dialyzed FBS, 1.71 µM | 76.8 | 73.4 | 68.3
RPMI 5 mM glucose + 10% dialyzed FBS, 5.12 µM | 51.2 | 42 | 30.3
RPMI 5 mM glucose + 10% dialyzed FBS, 15.4 µM | 18.3 | 36.5 | 19.4
RPMI 5 mM glucose + 10% dialyzed FBS, 46.1 µM | 12.5 | 31.5 | 19.1

AUC of viability dose-response curve
Conditions | NOMO1 [4] | P12-Ichikawa [5] | SEM cells [6]
HPLM + 10% dialyzed FBS | 381 | 415 | 379
RPMI 5 mM glucose + 10% FBS | 355 | 389 | 375
RPMI 5 mM glucose + 10% dialyzed FBS | 373 | 380 | 368

O=C1Nc2ccc(Cl)cc2[C@@](C#CC2CC2)(C(F)(F)F)O1
cell viability [%]
Conditions | NOMO1 [1] | P12-Ichikawa [2] | SEM cells [3]
HPLM + 10% dialyzed FBS, 0.000781 µM | 74.7 | 81.8 | 65.1
HPLM + 10% dialyzed FBS, 0.00234 µM | 97 | 91.9 | 74
HPLM + 10% dialyzed FBS, 0.00702 µM | 76.4 | 90.5 | 86.3
HPLM + 10% dialyzed FBS, 0.0211 µM | 85.9 | 90.6 | 95
HPLM + 10% dialyzed FBS, 0.0632 µM | 97 | 90.2 | 86
HPLM + 10% dialyzed FBS, 0.19 µM | 84.8 | 91.1 | 88.4
HPLM + 10% dialyzed FBS, 0.569 µM | 80.2 | 91.1 | 88.8
HPLM + 10% dialyzed FBS, 1.71 µM | 81.4 | 92.1 | 80.2
HPLM + 10% dialyzed FBS, 5.12 µM | 59 | 96.2 | 88.9
HPLM + 10% dialyzed FBS, 15.4 µM | 57.2 | 95 | 96
HPLM + 10% dialyzed FBS, 46.1 µM | 79.8 | 80 | 93.4
RPMI 5 mM glucose + 10% FBS, 0.000781 µM | 73.7 | 78.3 | 71.8
RPMI 5 mM glucose + 10% FBS, 0.00234 µM | 78.2 | 94.4 | 69.8
RPMI 5 mM glucose + 10% FBS, 0.00702 µM | 77.1 | 78.6 | 82.2
RPMI 5 mM glucose + 10% FBS, 0.0211 µM | 80.7 | 76.2 | 84.9
RPMI 5 mM glucose + 10% FBS, 0.0632 µM | 88.7 | 85.5 | 89.6
RPMI 5 mM glucose + 10% FBS, 0.19 µM | 80.8 | 83.1 | 84.6
RPMI 5 mM glucose + 10% FBS, 0.569 µM | 79.3 | 91.6 | 84.4
RPMI 5 mM glucose + 10% FBS, 1.71 µM | 80.4 | 85 | 87.8
RPMI 5 mM glucose + 10% FBS, 5.12 µM | 81.3 | 84.5 | 85.9
RPMI 5 mM glucose + 10% FBS, 15.4 µM | 77.3 | 85.1 | 91.6
RPMI 5 mM glucose + 10% FBS, 46.1 µM | 12.5 | 55.4 | 63.7
RPMI 5 mM glucose + 10% dialyzed FBS, 0.000781 µM | 70.1 | 73.8 | 62.1
RPMI 5 mM glucose + 10% dialyzed FBS, 0.00234 µM | 90.1 | 77.7 | 70
RPMI 5 mM glucose + 10% dialyzed FBS, 0.00702 µM | 92.3 | 80.5 | 89.5
RPMI 5 mM glucose + 10% dialyzed FBS, 0.0211 µM | 101 | 88.6 | 81.2
RPMI 5 mM glucose + 10% dialyzed FBS, 0.0632 µM | 97.9 | 80.8 | 82.7
RPMI 5 mM glucose + 10% dialyzed FBS, 0.19 µM | 95.9 | 85.1 | 78.9
RPMI 5 mM glucose + 10% dialyzed FBS, 0.569 µM | 95.6 | 78.4 | 85.6
RPMI 5 mM glucose + 10% dialyzed FBS, 1.71 µM | 93.2 | 77.7 | 81.5
RPMI 5 mM glucose + 10% dialyzed FBS, 5.12 µM | 86.7 | 79.8 | 81.8
RPMI 5 mM glucose + 10% dialyzed FBS, 15.4 µM | 95.7 | 79 | 84.8
RPMI 5 mM glucose + 10% dialyzed FBS, 46.1 µM | 78.3 | 61.8 | 54.7

AUC of viability dose-response curve
Conditions | NOMO1 [4] | P12-Ichikawa [5] | SEM cells [6]
HPLM + 10% dialyzed FBS | 381 | 430 | 413
RPMI 5 mM glucose + 10% FBS | 364 | 395 | 389
RPMI 5 mM glucose + 10% dialyzed FBS | 437 | 378 | 375
